Source: PMC6244536, “In Vivo Stabilized SB3, an Attractive GRPR Antagonist, for Pre- and Intra-Operative Imaging for Prostate Cancer” (Molecular Imaging and Biology, 2018)
Where two headings read alike, the source gives them in different places.

Experiments:
[1] = pre-clinical studies of PA combined with radiotracers; cited from earlier work
Excerpt: For application in patients, NEP inhibitors that are already approved for clinical use such as Sacubitril and Racecadotril might be applied.

human GRPR = human GRPR (Homo sapiens, UniProt P30550); assay: biochemical
Protocol: (§1) All statistical evaluations were performed with GraphPad Prism software (version 5.01). The IC50 value was calculated using a log (inhibitor) vs response model. To compare in vivo stability −/+ PA, radioactivity uptake in the tumor −/+ PA and radioactivity uptake in the tumor without and with an excess of unlabeled peptide an unpaired t test was used. P values < 0.05 were considered statistically significant. Tumor to organ uptake ratios were calculated per animal and expressed as mean and standard deviation per group.

[2] = healthy mice, blood 5 min p.i., radio-HPLC, mean ± SD; for intact radiotracer, % of remaining circulating activity in blood: 200 pmol/25 MBq i.v.; for intact radiotracer in blood: 2000 pmol/25 MBq i.v.
Protocol: To determine the stability of [^111In]SB3 −/+ PA in vivo, healthy mice (n = 3 per group) were intravenously injected with 200 pmol/25 MBq or 2000 pmol/25 MBq [^111In]SB3 (volume 100 μl), co-injected with either 300 μg/100 μl PA (Peptides International Inc.) in 0.5 % ethanol or 100 μl saline solution. Five minutes after injection of [^111In]SB3 −/+ PA, blood (0.5–1 ml) was collected by cardiac puncture, while animals were under isoflurane/O2 anesthesia, and transferred to blood-collection tubes containing 90 USP units of lithium heparin (spray coated), HPLC grade ethanol was added in a 1:1 (v/v) ratio, and the tubes were placed on ice. Blood samples were centrifuged 5 min at 1250g, and supernatant was collected. Next, the collected supernatant was centrifuged again for 5 min at 12,500g. The secondary supernatant was collected and diluted with MilliQ down to < 25 % ethanol before injection on HPLC. The samples were analyzed by HPLC (Alliance, Waters) including a Symmetry C18 column (5 μm × 4.6 mm × 250 mm). Elution was performed in a 1-ml/min flow, completed in 30 min, with the gradient 0–5 min 100 % A, 5–5.01 min 40 % A 60 % B, 5.01–20 min 20 % A 80 % B, 20–20.01 min 100 % B, 20.01–25 min 100 % B, and 25.01–30 min 100 % A, where A was 0.1 % TFA in H2O and B was methanol.

[3] = tested on: PC-3 tumor xenografts (GRPR-expressing); assay: in vivo; conditions: mouse
Protocol: (§2) Healthy or xenografted Balb c nu/nu male mice (Janvier) were used in this study. To obtain xenografted mice, animals were injected subcutaneously in the right shoulder with PC-3, 3 × 10^6 cells in Matrigel (total volume 150 μl, solution 66 % RPMI, 33 % Matrigel) per animal. Prior to tumor cell inoculation, the PC-3 cells were cultured in RPMI medium supplemented with 10 % fetal bovine serum, 5000 IU/ml penicillin, and 5000 μg/ml streptomycin at 37 °C in a humidified atmosphere containing 5 % CO2. PC295 is an androgen-dependent, patient-derived cell line with high GRPR expression. Xenografts were generated by subcutaneous implantation of the PC295 human prostate tumor as previously described and were stored at − 80 °C until further use. All culture supplies were purchased at Gibco.
(§3) Tumor-bearing mice received an intravenous injection of 200 pmol/2.5 MBq [^111In]SB3, co-injected with either 300 μg/100 μl PA in 0.5 % ethanol or 100 μl saline solution (n = 4 animals per group for each time point). […] To determine specificity of tumor and organ uptake, blocking experiments were performed; an additional group of animals (n = 3) was pre-injected with an excess (20 nmol) of unlabeled SB3 followed by injection of the radiotracer −/+ PA. At three different time points p.i. (1, 4, and 24 h), animals were euthanized and blood, organs, and tumors were collected, weighed, and measured in a γ-counter (1480 WIZARD automatic γ-counter, PerkinElmer). For γ-counter measurements, an isotope specific energy window, a counting time of 60 s, and a counting error ≤ 5 % were used. Results were expressed as the percentage of the injected dose per gram tissue (% ID/g tissue). Animals that had ≥ 7 % ID in the tail were excluded.
as §1

in vivo = conditions: male, Balb c nu/nu, mouse, iv, total radioactivity
Protocol: as §2, §3, §1

[4] = Indium-111 labeled; cited from earlier work
Excerpt: Preclinical as well as clinical PET imaging studies using [^68Ga]SB3 have been performed with great success. […] To increase the in vivo stability of radiopeptides, multiple solutions are available, including structural modifications of a peptide or the novel approach of inhibition of enzymes responsible for enzymatic degradation. Since structural modifications are time consuming, and ...

[5] = tested on: PC-3 tumor xenografts (GRPR-expressing); conditions: 1 h p.i.; for tumor ROI signal intensity on SPECT: 25 MBq/200 pmol i.v.
Protocol: For SPECT/MRI, PC-3-xenografted mice were intravenously injected with 25 MBq/200 pmol [^111In]SB3, co-injected with either 300 μg/100 μl PA in 0.5 % ethanol or 100 μl saline solution. Subsequently, imaging was performed 1, 4, and 24 h p.i. of the radiotracer, while animals were anesthetized using isoflurane/O2, body temperature was maintained using warm air flow, and respiratory rate was monitored. Whole-body SPECT images were acquired using the novel and state-of-the-art four-head multipinhole system (NanoScan SPECT/MRI, Mediso Medical Imaging) in 30 min (28 projections, 29 s/projection, and 7-cm axial field of view). Images were reconstructed using OSEM with six iterations and four subsets on a 120 × 120 matrix with 0.25 × 0.25 × 0.25-mm isotropic voxels. MR-based attenuation correction was applied to all images. T2 MR images were acquired using a spin echo sequence (TR/TE = 4500/52 ms) with a 35-mm-diameter solenoid coil. Other scan parameters were field of view 70 mm, matrix 256 × 128, and slice thickness 1 mm with 0.1-mm spacing between slices. An ROI of the tumor was drawn by an experienced technician on the T2-weighted MR image to measure the intensity in the SPECT image.

[6] = co-injected with 300 μg PA, n = 3

human GRPR, sequence (P30550 whole entry): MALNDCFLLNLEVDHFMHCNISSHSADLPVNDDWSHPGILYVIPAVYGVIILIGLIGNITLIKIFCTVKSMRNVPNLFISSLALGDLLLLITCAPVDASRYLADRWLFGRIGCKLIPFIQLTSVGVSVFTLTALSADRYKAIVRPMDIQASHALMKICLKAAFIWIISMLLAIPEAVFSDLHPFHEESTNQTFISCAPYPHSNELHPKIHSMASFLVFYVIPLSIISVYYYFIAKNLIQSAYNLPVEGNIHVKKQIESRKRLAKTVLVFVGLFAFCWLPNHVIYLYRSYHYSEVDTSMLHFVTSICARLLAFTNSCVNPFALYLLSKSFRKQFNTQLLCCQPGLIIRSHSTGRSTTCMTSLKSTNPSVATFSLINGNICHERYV

In the case of `CC(C)C[C@H](NP(=O)(O)O[C@@H]1O[C@@H](C)[C@H](O)[C@@H](O)[C@H]1O)C(=O)N[C@@H](Cc1c[nH]c2ccccc12)C(=O)O` [PA, phosphoramidon], the adverse events [1] is given as “have not indicated any adverse events”.

For `CCNC(=O)[C@H](CC(C)C)NC(=O)[C@H](Cc1c[nH]cn1)NC(=O)CNC(=O)[C@@H](NC(=O)[C@H](C)NC(=O)[C@H](Cc1c[nH]c2ccccc12)NC(=O)[C@H](CCC(N)=O)NC(=O)[C@@H](Cc1ccccc1)NC(=O)COCC(=O)Nc1ccc(CNC(=O)CN2CCN(CC(=O)O)CCN(CC(=O)O)CCN(CC(=O)O)CC2)cc1)C(C)C` [SB3, Sarabesin 3], the IC50 (human GRPR) was 3.5 nM.

In the case of `CCNC(=O)[C@H](CC(C)C)NC(=O)[C@H](Cc1c[nH]cn1)NC(=O)CNC(=O)[C@@H](NC(=O)[C@H](C)NC(=O)[C@H](Cc1c[nH]c2ccccc12)NC(=O)[C@H](CCC(N)=O)NC(=O)[C@@H](Cc1ccccc1)NC(=O)COCC(=O)Nc1ccc(CNC(=O)CN2CCN(CC(=O)O)CCN(CC(=O)O)CCN(CC(=O)O)CC2)cc1)C(C)C` [[^111In]SB3, metal not drawn], the “intact radiotracer, % of remaining circulating activity in blood” value [2, 6] is reported as 86.7 ± 1.5%, the “intact radiotracer, % of remaining circulating activity in blood” value ([2]; without PA, n = 3) is reported as 37.3 ± 2.5% and the “intact radiotracer in blood” value [2, 6] is reported as 87.9 ± 1.1%. The “intact radiotracer in blood” value ([2]; without PA, one animal excluded) was 42.0 ± 0.2%, the “uptake in the pancreas and the tumor with an excess of unlabeled SB3 (blocking)” value [3] was “significantly decreased” and the tissue uptake at 1 h (in vivo; 200 pmol, pancreatic uptake) was 4.1 ± 2.3 %ID/g. It also gave a tissue uptake at 1 h (in vivo; 200 pmol, renal uptake) of 3.9 ± 1.4 %ID/g, a tissue to tissue ratio at 1 h (in vivo; 200 pmol, tumor to kidney ratio) of 2.8 ± 1 and a tissue to tissue ratio at 1 h (in vivo; 200 pmol, tumor to pancreas radioactivity ratio) of 3.4 ± 2.5. It also gave a tissue uptake at 1 h (in vivo; 200 pmol, tumor uptake) of 10.2 ± 1.5 %ID/g, a tissue uptake at 4 h (in vivo; 200 pmol, tumor uptake) of 8.3 ± 1.1 %ID/g and a tissue uptake at 24 h (in vivo; 200 pmol, tumor uptake) of 3.1 ± 1.9 %ID/g. For the same compound, the tissue uptake at 1 h (in vivo; pancreatic uptake) was 10.1 ± 4.3 %ID/g, the tissue uptake at 1 h (in vivo; renal uptake) was 4.5 ± 1.4 %ID/g and the tissue to tissue ratio at 1 h (in vivo; tumor to kidney ratio) was 4.8 ± 2.2. It also gave a tissue to tissue ratio at 1 h (in vivo; tumor to pancreas radioactivity ratio) of 2.2 ± 0.8, a tissue uptake at 1 h (in vivo; tumor uptake) of 19.7 ± 3.5 %ID/g and a tissue uptake at 4 h (in vivo; tumor uptake) of 17.6 ± 5.1 %ID/g. The tissue uptake at 24 h (in vivo; tumor uptake) was 6.5 ± 3.3 %ID/g, the in vivo stability [4] was “poor in vivo stability” and the “tumor ROI signal intensity on SPECT” value ([5]; with 300 μg PA) was 2434 kBq/ml. The “tumor ROI signal intensity on SPECT” value ([5]; without PA) was 1424 kBq/ml and the “increase in tumor signal intensity with PA vs without PA” value ([5]; ROI analysis, 25 MBq/200 pmol) was 70%.
